Measured values: US20220313698A1, “MODULATORS OF CYSTIC FIBROSIS TRANSMEMBRANE CONDUCTANCE REGULATOR” (Vertex Pharmaceuticals Incorporated, priority 2019, published 2022)
“And” between values parts separate entries of the source, which are not always exact repeats. Equal entries are not always repeated. Where two headings read alike, the source gives them in different places. One block for each molecule: values may come before it.

Assays:
[1] = snar bond, 15-membered ring
[2] = target: T1, CFTR-mediated chloride transport (Homo sapiens, UniProt P13569); assay: Corrector Assay A - membrane potential dye assay (enteroid cells); conditions: for Corrector Assay A % activity: % of chloride transport of triple combination control (1 μM (14S)-dispiro macrocycle + 3 μM tezacaftor + 300 nM ivacaftor); for EC50: read-out: Corrector Assay A EC50, human intestinal enteroid cells, 18-24 h incubation, acute 10 μM forskolin + 300 nM ivacaftor
[3] = snar bond, 15-membered ring, DMSO, 2 steps
[4] = target: T1, CFTR-mediated chloride transport; assay: Corrector Assay B - membrane potential dye assay (enteroid cells); conditions: for Corrector Assay B % activity: % of chloride transport of triple combination control (3 μM Compound A + 3 μM tezacaftor + 300 nM ivacaftor); for EC50: read-out: Corrector Assay B EC50, human intestinal enteroid cells, 18-24 h incubation, acute 10 μM forskolin + 300 nM ivacaftor;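 as to all read-outs here: methyl oxonol membrane potential fluorescence followed over 15 min after switching to chloride-free buffer with forskolin, 100 µM IBMX and ivacaftor, in presence of CaCC blockers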
Procedure: Base medium (ADF+++) consisted of Advanced DMEM/Ham's F12, 2 mM Glutamax, 10 mM HEPES, 1 μg/ml penicillin/streptomycin.
Intestinal enteroid maintenance medium (IEMM) consisted of ADF+++, 1×B27 supplement, 1×N2 supplement, 1.25 mM N-acetyl cysteine, 10 mM Nicotinamide, 50 ng/mL hEGF, 10 nM Gastrin, 1 μg/mL hR-spondin-1, 100 ng/mL hNoggin, TGF-b type 1 inhibitor A-83-01, 100 μg/mL Primocin, 10 μM P38 MAPK inhibitor SB202190.
Bath 1 Buffer consisted of 1 mM MgCl2, 160 mM NaCl, 4.5 mM KCl, 10 mM HEPES, 10 mM Glucose, 2 mM CaCl2).
Chloride Free Buffer consisted of 1 mM Magnesium Gluconate, 2 mM Calcium Gluconate, 4.5 mM Potassium Gluconate, 160 mM Sodium Gluconate, 10 mM HEPES, 10 mM Glucose.
Bath 1 Dye Solution consisted of Bath 1 Buffer, 0.04% Pluronic F127, 20 μM Methyl Oxonol, 30 μM CaCCinh-A01, 30 μM Chicago Sky Blue.
Chloride Free Dye Solution consisted of Chloride Free Buffer, 0.04% Pluronic F127, 20 μM Methyl Oxonol, 30 μM CaCCinh-A01, 30 μM Chicago Sky Blue.
Chloride Free Dye Stimulation Solution consisted of Chloride Free Dye Solution, 10 μM forskolin, 100 μM IBMX, and 300 nM Ivacaftor.
Cells were recovered in cell recovery solution, collected by centrifugation at 650 rpm for 5 min at 4° C., resuspended in TryPLE and incubated for 5 min at 37° C. Cells were then collected by centrifugation at 650 rpm for 5 min at 4° C. and resuspended in IEMM containing 10 μM ROCK inhibitor (RI). The cell suspension was passed through a 40 μm cell strainer and resuspended at 1×10^6 cells/mL in IEMM containing 10 μM RI. Cells were seeded at 5000 cells/well into multi-well plates and incubated for overnight at 37° C., 95% humidity and 5% CO2 prior to assay.
Briefly, cells were washed 5 times in Bath 1 Buffer. Bath 1 Dye Solution was added and the cells were incubated for 25 min at room temperature. Following dye incubation, cells were washed 3 times in Chloride Free Dye Solution. Chloride transport was initiated by addition of Chloride Free Dye Stimulation Solution and the fluorescence signal was read for 15 min. The CFTR-mediated chloride transport for each condition was determined from the AUC of the fluorescence response to acute forskolin and 300 nM N-[2,4-bis(1,1-dimethylethyl)-5-hydroxyphenyl]-1,4-dihydro-4-oxoquinoline-3-carboxamide stimulation. Chloride transport was then expressed as a percentage of the chloride transport following treatment with 3 μM Compound A, 3 μM (R)-1-(2,2-difluorobenzo[d][1,3]dioxol-5-yl)-N-(1-(2,3-dihydroxypropyl)-6-fluoro-2-(1-hydroxy-2-methylpropan-2-yl)-1H-indol-5-yl)cyclopropanecarboxamide and 300 nM acute N-[2,4-bis(1,1-dimethylethyl)-5-hydroxyphenyl]-1,4-dihydro-4-oxoquinoline-3-carboxamide triple combination control (% Activity).

SMILES: C=CC1CC[C@@H]2CN(c3nc(C(C)(C)C)ccc3C(=O)NS(=O)(=O)c3cccc(n3)N1)C(C)(C)C2 (some centres unmarked)
ring closure, isolated yield ([1]; from C=CC(CC[C@@H]1CN(C(=O)OC(C)(C)C)C(C)(C)C1)Nc1cccc(S(=O)(=O)NC(=O)c2ccc(C(C)(C)C)nc2F)n1, K2CO3, NMP, 159.0 mM, 150.0 °C, 2 steps): 22% and 25%

SMILES: CC(C)(C)CC1CNc2cccc(n2)S(=O)(=O)NC(=O)c2ccc(-n3ccc(OCCC4C5(CC5)C45CC5)n3)nc2N2C[C@@H](C1)CC2(C)C (some centres unmarked)
ring closure, isolated yield ([1]; from CC(C)(C)CC(CNc1cccc(S(=O)(=O)NC(=O)c2ccc(-n3ccc(OCCC4C5(CC5)C45CC5)n3)nc2Cl)n1)C[C@@H]1CNC(C)(C)C1, K2CO3, DMSO, 73.6 mM, 120.0 °C, 20.0 h): 44%

SMILES: CC(C)(C)CC1CNc2cccc(n2)S(=O)(=O)NC(=O)c2ccc(C(C)(C)C)nc2N2C[C@@H](C1)CC2(C)C (some centres unmarked)
ring closure, isolated yield ([1]; from CC(C)(C)CC(CNc1cccc(S(=O)(=O)NC(=O)c2ccc(C(C)(C)C)nc2F)n1)C[C@@H]1CNC(C)(C)C1, K2CO3, DMSO, 94.7 mM, 120.0 °C, 24.0 h): 27%

SMILES: CC(C)(C)c1ccc2c(n1)N1C[C@@H](CCC(c3cc(Br)ccn3)Nc3cccc(n3)S(=O)(=O)NC2=O)CC1(C)C (some centres unmarked)
ring closure, isolated yield ([1]; from CC(C)(C)OC(=O)N1C[C@@H](CCC(Nc2cccc(S(=O)(=O)NC(=O)c3ccc(C(C)(C)C)nc3F)n2)c2cc(Br)ccn2)CC1(C)C, K2CO3, NMP, 77.8 mM, 150.0 °C, 2 steps): 21%

SMILES: CC(C)(C)c1ccnc(C2CC[C@@H]3CN(c4cc(C(C)(C)C)c(Br)cc4C(=O)NS(=O)(=O)c4cccc(n4)N2)C(C)(C)C3)c1 (some centres unmarked)
ring closure, isolated yield ([1]; from CC1(C)C[C@H](CCC(Nc2cccc(S(=O)(=O)NC(=O)c3cc(Br)c(C(C)(C)C)cc3F)n2)c2cc(C(C)(C)C)ccn2)CN1, Cs2CO3, DMSO, 58.3 mM, 150.0 °C, 96.0 h): 17%

SMILES: CC(C)(C)c1ccnc(C2CC[C@@H]3CN(c4nc(-n5ccc(OCCC6C7(CC7)C67CC7)n5)ccc4C(=O)NS(=O)(=O)c4cccc(n4)N2)C(C)(C)C3)c1 (some centres unmarked)
ring closure, isolated yield ([1]; from CC(C)(C)OC(=O)N1C[C@@H](CCC(Nc2cccc(S(=O)(=O)NC(=O)c3ccc(-n4ccc(OCCC5C6(CC6)C56CC6)n4)nc3Cl)n2)c2cc(C(C)(C)C)ccn2)CC1(C)C, K2CO3, NMP, 48.8 mM, 140.0 °C, 2 steps): 44.5%

SMILES: CC(C)(C)c1ccnc(C2CC[C@@H]3CN(c4nc(C(C)(C)C)c(Br)cc4C(=O)NS(=O)(=O)c4cccc(n4)N2)C(C)(C)C3)c1 (some centres unmarked)
ring closure, isolated yield ([1]; from CC(C)(C)OC(=O)N1C[C@@H](CCC(Nc2cccc(S(=O)(=O)NC(=O)c3cc(Br)c(C(C)(C)C)nc3Cl)n2)c2cc(C(C)(C)C)ccn2)CC1(C)C, K2CO3, NMP, 61.5 mM, 160.0 °C, 2 steps): 56%

SMILES: CC(C)(C)c1ccnc(C2CC[C@H]3CCCN(C3)c3nc(C(C)(C)C)ccc3C(=O)NS(=O)(=O)c3cccc(n3)N2)c1 (some centres unmarked)
ring closure, isolated yield ([1]; from CC(C)(C)c1ccnc(C(CC[C@H]2CCCNC2)Nc2cccc(S(=O)(=O)NC(=O)c3ccc(C(C)(C)C)nc3F)n2)c1, K2CO3, DMSO, 69.4 mM, 120.0 °C, 24.0 h): 17%

SMILES: CC(C)(C)c1ccnc(C2CC[C@H]3CCN(C3)c3nc(C(C)(C)C)ccc3C(=O)NS(=O)(=O)c3cccc(n3)N2)c1 (some centres unmarked)
ring closure, isolated yield ([1]; from CC(C)(C)c1ccnc(C(CC[C@H]2CCNC2)Nc2cccc(S(=O)(=O)NC(=O)c3ccc(C(C)(C)C)nc3F)n2)c1, K2CO3, DMSO, 77.9 mM, 120.0 °C, 2.0 h): 54%

SMILES: CC1(C)CC2CN1c1nc(-n3ccc(OCCC4C5(CC5)C45CC5)n3)ccc1C(=O)NS(=O)(=O)c1cccc(n1)NCCC2CCc1ccccc1 (centres unmarked)
ring closure, isolated yield ([1]; from CC1(C)CC(C(CCNc2cccc(S(=O)(=O)NC(=O)c3ccc(-n4ccc(OCCC5C6(CC6)C56CC6)n4)nc3Cl)n2)CCc2ccccc2)CN1, K2CO3, NMP, 64.5 mM, 150.0 °C, 20.0 h, 2 steps): 61%

SMILES: CC1(C)C[C@@H]2CCC(c3ccccn3)Nc3cccc(n3)S(=O)(=O)NC(=O)c3ccc(-n4ccc(OCCC5(C(F)(F)F)CC5)n4)nc3N1C2 (some centres unmarked)
ring closure, isolated yield ([1]; from CC1(C)C[C@H](CCC(Nc2cccc(S(=O)(=O)NC(=O)c3ccc(-n4ccc(OCCC5(C(F)(F)F)CC5)n4)nc3Cl)n2)c2ccccn2)CN1, K2CO3/3A MS, DMSO, 26.1 mM, 155.0 °C, 18.0 h, 2 steps): 38%

SMILES: CC1(C)C[C@@H]2CCC(c3cncnc3)Nc3cccc(n3)S(=O)(=O)NC(=O)c3ccc(-n4ccc(OCCC5(C(F)(F)F)CC5)n4)nc3N1C2 (some centres unmarked)
ring closure, isolated yield ([1]; from CC1(C)C[C@H](CCC(Nc2cccc(S(=O)(=O)NC(=O)c3ccc(-n4ccc(OCCC5(C(F)(F)F)CC5)n4)nc3Cl)n2)c2cncnc2)CN1, K2CO3/3A MS, DMSO, 49.2 mM, 155.0 °C, 18.0 h): 28%

SMILES: CC1(C)C[C@@H]2CCCNc3cccc(n3)S(=O)(=O)NC(=O)c3ccc(-n4ccc(OCCC5C6(CC6)C56CC6)n4)cc3N1C2
ring closure, isolated yield ([1]; from CC1(C)C[C@H](CCCNc2cccc(S(=O)(=O)NC(=O)c3ccc(-n4ccc(OCCC5C6(CC6)C56CC6)n4)cc3F)n2)CN1, Cs2CO3, DMSO, 67.0 mM, 150.0 °C, 96.0 h): 29%

SMILES: CC1(C)C[C@@H]2CCNCc3cccc(n3)S(=O)(=O)NC(=O)c3ccc(-n4ccc(OCCC5C6(CC6)C56CC6)n4)nc3N1C2
ring closure, isolated yield ([1]; from CC1(C)C[C@H](CCNCc2cccc(S(=O)(=O)NC(=O)c3ccc(-n4ccc(OCCC5C6(CC6)C56CC6)n4)nc3Cl)n2)CN1, K2CO3, DMSO, 57.3 mM, 120.0 °C, 24.0 h): 3%

SMILES: CC1(C)CC(C2CC[C@@H]3CN(c4nc(C(C)(C)C)ccc4C(=O)NS(=O)(=O)c4cccc(n4)N2)C(C)(C)C3)CC(C)(C)O1 (mixture of isomers)
ring closure, isolated yield ([1]; from 6-tert-Butyl-N-[[6-[[3-[(3S)-5,5-dimethylpyrrolidin-3-yl]-1-(2,2,6,6-tetramethyltetrahydropyran-4-yl)propyl]amino]-2-pyridyl]sulfonyl]-2-fluoro-pyridine-3-carboxamide (Trifluoroacetic Acid (1)), K2CO3, DMF, 80.7 mM, 140.0 °C): 48%

Corrector Assay A % activity [2]: ++ (++ is 30-60%) | EC50 [2]: 1000 to 3000 nM
SMILES: CC(C)(C)c1ncc2c(n1)N1C[C@@H](CCCNc3cccc(n3)S(=O)(=O)NC2=O)CC1(C)C [Compound 11, (14S)-8-tert-butyl-12,12-dimethyl-2λ^6-thia-3,7,9,11,18,23-hexaazatetracyclo[17.3.1.111,14.05,10]tetracosa-1(22),5,7,9,19(23),20-hexaene-2,2,4-trione]
ring closure, isolated yield ([1]; from 2-tert-Butyl-4-chloro-N-[[6-[3-[(3S)-5,5-dimethylpyrrolidin-3-yl]propylamino]-2-pyridyl]sulfonyl]pyrimidine-5-carboxamide (dihydrochloride salt), K2CO3/CsF, NMP, 123.1 mM, 150.0 °C): 13%

Corrector Assay A % activity [2]: +++ (+++ is >60%) | EC50 [2]: < 1000 nM | Corrector Assay B % activity [4]: +++ (+++ is >60%) | EC50 [4]: < 1000 nM
SMILES: CC(C)(C)c1ccc2c(n1)N1C[C@@H](CCCNc3cccc(n3)S(=O)(=O)NC2=O)CC1(C)C [Compound 296, (14S)-8-tert-Butyl-12,12-dimethyl-2λ^6-thia-3,9,11,18,23-pentaazatetracyclo[17.3.1.111,14.05,10]tetracosa-1(23),5(10),6,8,19,21-hexaene-2,2,4-trione]
ring closure, yield after HPLC ([3]; from CC1(C)C[C@H](CCCNc2cccc(S(=O)(=O)NC(=O)c3ccc(C(C)(C)C)nc3Cl)n2)CN1, K2CO3/3A MS, 53.4 mM, 165.0 °C, 60.0 h): 43%

Corrector Assay B % activity [4]: +++ (+++ is >60%) | EC50 [4]: < 1000 nM
SMILES: CC1(C)C[C@@H]2CCCN(CC(O)CO)c3cccc(n3)S(=O)(=O)NC(=O)c3ccc(-n4ccc(OCCC5(C(F)(F)F)CC5)n4)nc3N1C2 (stereo partly drawn) [Compound 382, (14S)-18-(2,3-dihydroxypropyl)-12,12-dimethyl-8-(3-{2-[1-(trifluoromethyl)cyclopropyl]ethoxy}-1H-pyrazol-1-yl)-2λ^6-thia-3,9,11,18,23-pentaazatetracyclo [17.3.1.111,14.05,10]tetracosa-1(22),5,7,9,19(23),20-hexaene-2,2,4-trione]
ring closure, yield after HPLC ([3]; from CC(C)(C)OC(=O)N1C[C@@H](CCCN(CC2COC(C)(C)O2)c2cccc(S(=O)(=O)NC(=O)c3ccc(-n4ccc(OCCC5(C(F)(F)F)CC5)n4)nc3Cl)n2)CC1(C)C, K2CO3/4A MS, 38.5 mM, 140.0 °C): 59%

Corrector Assay B % activity [4]: ++ (++ is 30-60%) | EC50 [4]: < 1000 nM
SMILES: CC1(C)C[C@@H]2CCCN(c3ccccc3)c3cccc(n3)S(=O)(=O)NC(=O)c3ccc(-n4ccc(OCCC5(C(F)(F)F)CC5)n4)nc3N1C2 [Compound 395, (14S)-12,12-dimethyl-18-phenyl-8-(3-{2-[1-(trifluoromethyl)cyclopropyl]ethoxy}-1H-pyrazol-1-yl)-2λ^6-thia-3,9,11,18,23-pentaazatetracyclo[17.3.1.111,14.05,10]tetracosa-1(23),5(10),6,8,19,21-hexaene-2,2,4-trione]
ring closure, isolated yield ([1]; from CC1(C)C[C@H](CCCN(c2ccccc2)c2cccc(S(=O)(=O)NC(=O)c3ccc(-n4ccc(OCCC5(C(F)(F)F)CC5)n4)nc3Cl)n2)CN1, K2CO3/3A MS, DMSO, 19.9 mM, 155.0 °C, 16.0 h, 2 steps): 46%
